Measured values from patent publication US5789434A, “Derivatives of substituted 4-biarylbutyric acid as matrix metalloprotease inhibitors” (priority 1995, dated 1998).
Non-standard residues stand in square brackets, D forms with d. Residues, ends and D or L forms follow the SMILES beside them. *: point of attachment. Dnp = O=[N+]([O-])c1ccc(*)c([N+](=O)[O-])c1; Mca = COc1ccc2c(CC(=O)*)cc(=O)oc2c1; Dap = NC[C@H](N)C(=O)O

Key:
Assay type in all cases: biochemical
MMP-3 [1] = target: T1, MMP-3 (Homo sapiens, UniProt P08254); test: Primary Thiopeptilide MMP-3 Inhibition Assay; settings: for IC50: pH 6.5, 13 nM stromelysin, x (n) = average of n determinations, read-out: MMP-3 Thiopep. IC50; for inhibition at 5 µM: read-out: MMP-3 Thiopep. % inhibition
T1 construct: Truncated Prostromelysin-257 was expressed in a soluble form in E.coli; made in house; host or cells: E. coli
T1 sequence (P08254 100-274 limits assumed): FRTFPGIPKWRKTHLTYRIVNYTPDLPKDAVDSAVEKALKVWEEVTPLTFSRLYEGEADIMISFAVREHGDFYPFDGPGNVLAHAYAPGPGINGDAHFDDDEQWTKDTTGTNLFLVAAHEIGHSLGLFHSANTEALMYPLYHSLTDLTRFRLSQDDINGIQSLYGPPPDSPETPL
Procedure: Enzyme: recombinant stromelysin expressed in E.coli and purified as described above. […] The protocols for the assay of compounds as stromelysin inhibitors was the same as that used for MMP-9 except that the assay buffer was 50 mM MES, pH 6.5 containing 150 mM NaCl, 10 mM CaCl2, 0.005% Brij, and 1% DMSO.

MMP-9 [2] = target: T2, MMP-9 (Homo sapiens, UniProt P14780); test: Thiopeptilide MMP-9 Inhibition Assay; settings: for IC50: pH 6.5, x (n) = average of n determinations, read-out: MMP-9: Thiopep. IC50; for inhibition at 5 µM: read-out: MMP-9: Thiopep. % inhibition
T2 construct: from tissue; host or cells: human polymorphonuclear leukocytes (PMN) from whole blood (New York Blood Center), PMA-stimulated supernatant
T2 sequence (P14780 107-707 limits assumed): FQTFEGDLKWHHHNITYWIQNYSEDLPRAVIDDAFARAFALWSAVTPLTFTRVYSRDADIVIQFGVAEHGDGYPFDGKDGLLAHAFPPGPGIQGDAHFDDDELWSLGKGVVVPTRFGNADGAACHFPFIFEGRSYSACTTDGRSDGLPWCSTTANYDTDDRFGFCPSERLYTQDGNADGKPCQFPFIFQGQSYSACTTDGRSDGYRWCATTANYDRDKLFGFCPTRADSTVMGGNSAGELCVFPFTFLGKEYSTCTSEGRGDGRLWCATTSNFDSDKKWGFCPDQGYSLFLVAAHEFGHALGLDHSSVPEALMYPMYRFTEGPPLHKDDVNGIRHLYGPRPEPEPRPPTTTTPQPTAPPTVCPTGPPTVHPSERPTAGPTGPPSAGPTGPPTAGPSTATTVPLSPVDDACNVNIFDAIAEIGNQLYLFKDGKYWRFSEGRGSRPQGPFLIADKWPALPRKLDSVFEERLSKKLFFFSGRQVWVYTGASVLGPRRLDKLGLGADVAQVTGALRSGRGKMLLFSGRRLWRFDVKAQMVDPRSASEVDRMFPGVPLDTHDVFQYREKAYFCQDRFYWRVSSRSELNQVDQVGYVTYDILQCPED

MMP = MMP inhibitory activity, comparison in words
MMP-3 [3] = target: T1, MMP-3; test: Secondary P218 Quenched fluorescence Assay for MMP-3 Inhibition; settings: for IC50: P218 substrate, pH 6.5, 25° C., x (n) = average of n determinations, read-out: MMP-3 Fluorogenic IC50
Procedure: Truncated Prostromelysin-257 was expressed in a soluble form in E.coli as described by Marcy et al., Biochemistry, 30, 6476-6483, 1991. Soluble truncated prostromelysin was purified by a modification of the monoclonal antibody affinity chromatography method described by Housley et al., J. Biol. Chem., 268, 4481-87, 1993.
The assay is run continuously in a 3.0 ml cuvette using a Perkin-Elmer LS 50 B Spectrofluorimeter at 25° C. in a final volume of 2.0 mls. P218 substrate (10 mM) in 100% DMSO is diluted to a final concentration of 2.0 micromolar (μM) into assay buffer: 50 mM MES, pH 6.5 containing 150 mM NaCl, 10 mM CaCl2, 0.005% Brij-35, and 1%(v/v) DMSO. Test compounds(10 mM) in DMSO are diluted in assay buffer at an initial concentration of 10 to 100 micromolar. […] The reaction is initiated by the addition of recombinant stromelysin (MMP-3) at a final concentration of 1.0 nM. Upon peptide cleavage, the fluorescent MCA group was detected using an excitation wavelength of 328 nanometers and an emission wavelength of 393 nanometers.

MMP-2 [4] = target: T3, MMP-2 (Homo sapiens, UniProt P08253); test: Secondary P218 Quenched fluorescence Assay for MMP-2 Inhibition; settings: for IC50: 0.2 nM enzyme, x (n) = average of n determinations, read-out: MMP-2 Fluorogenic IC50
T3 sequence (P08253 110-660): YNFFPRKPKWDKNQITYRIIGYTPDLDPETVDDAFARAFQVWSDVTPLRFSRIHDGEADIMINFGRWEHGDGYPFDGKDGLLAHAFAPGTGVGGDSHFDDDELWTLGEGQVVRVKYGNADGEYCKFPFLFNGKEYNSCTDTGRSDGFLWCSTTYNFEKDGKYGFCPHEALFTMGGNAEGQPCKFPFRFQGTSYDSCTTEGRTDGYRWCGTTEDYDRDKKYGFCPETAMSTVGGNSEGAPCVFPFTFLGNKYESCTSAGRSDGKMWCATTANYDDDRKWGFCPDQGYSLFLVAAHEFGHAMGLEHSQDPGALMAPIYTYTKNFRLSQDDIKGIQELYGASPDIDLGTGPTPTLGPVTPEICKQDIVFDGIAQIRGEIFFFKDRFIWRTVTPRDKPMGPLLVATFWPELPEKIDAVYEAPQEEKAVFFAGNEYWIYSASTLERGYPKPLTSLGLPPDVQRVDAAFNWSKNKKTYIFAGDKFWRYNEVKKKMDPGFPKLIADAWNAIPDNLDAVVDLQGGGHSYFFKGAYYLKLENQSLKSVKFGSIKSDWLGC

MMP-3 [5] = target: T1, MMP-3; test: Automated MMP Profiling Assay, MMP-3 fluorogenic; settings: 96-well automated, P218
Excerpt: This assay with each invention compound was run with the three enzymes MMP-3, MMP-9 and MMP-2 in parallel as adapted for a 96-well microtitre plate using a Hamilton A® workstation.

MMP-9 [6] = target: T2, MMP-9; test: Automated MMP Profiling Assay, MMP-9 fluorogenic; settings: 96-well automated, P218
MMP-2 [7] = target: T3, MMP-2; test: Automated MMP Profiling Assay, MMP-2 fluorogenic; settings: 96-well automated, P218; read-out: MMP-2 Fluorogenic IC50 (profiling)

O=C(O)[C@@H]1CC[C@H]1C(=O)c1ccc(-c2ccc(Cl)cc2)cc1 (relative stereo) [Example 291, Cyclobutanecarboxylic acid, 2-[(4'-chloro[1,1'-biphenyl]-4-yl)carbonyl]-, trans-]
IC50 (MMP-3 [1]): 437 nM
IC50 (MMP-9 [2]): 2700 nM
MMP inhibitory activity (in words) (MMP): much more active

O=C(O)[C@@H]1[C@@H](C(=O)c2ccc(-c3ccc(Cl)cc3)cc2)CC[C@H]1Sc1ccccc1 (relative stereo) [Example 294, trans-5-[4-(4-chlorophenyl)phenylcarbonyl]-trans-^2-phenylthiocyclopentanecarboxylic acid]
IC50 (MMP-3 [1]): 47 nM
IC50 (MMP-3 [3]): 14 nM
IC50 (MMP-9 [2]): 56 nM
IC50 (MMP-2 [4]; P218 substrate): 4 nM
IC50 (MMP-3 [5]): 58 nM
IC50 (MMP-9 [6]): 176 nM
IC50 (MMP-2 [7]): 11 nM

CC(C)CC(CC(=O)O)C(=O)c1ccc(-c2ccc(Cl)cc2)cc1 (single isomer, unassigned) [Example 4, 5-methyl-3-[oxo-(4'-chloro-4-biphenyl)methyl]hexanoic acid]
IC50 (MMP-3 [1]): 379 nM
IC50 (MMP-3 [3]): 480 nM
IC50 (MMP-9 [2]): 2700 nM

CC(C)(C)C(=O)SCC(CC(=O)c1ccc(-c2ccc(Cl)cc2)cc1)C(=O)O (single isomer, unassigned) [Example 194, [1,1'-Biphenyl]-4-butanoic acid, 4'-chloro-α-[[(2,2-dimethyl-1-oxopropyl)thio]methyl]-γ-oxo-]
IC50 (MMP-3 [1]): 115 nM
IC50 (MMP-3 [3]): 62 nM
IC50 (MMP-9 [2]): 750 nM

CC(C)CC(CC(=O)c1ccc(-c2ccc(Cl)cc2)cc1)C(=O)O (stereo not drawn) [Example 1, [1,1'-Biphenyl]-4-butanoic acid, 4'-chloro-α-(2-methylpropyl)-γ-oxo-]
IC50 (MMP-3 [1]): 486 nM
IC50 (MMP-3 [3]): 805 nM
IC50 (MMP-9 [2]): 1000 nM

CC(C)CC(CC(=O)c1ccc(-c2ccccc2)cc1)C(=O)O (stereo not drawn) [Example 13, [1,1'-Biphenyl]-4-butanoic acid, α-(2-methylpropyl)-γ-oxo-]
inhibition at 5 µM (MMP-3 [1]): 27%
inhibition at 5 µM (MMP-9 [2]): 3%
MMP inhibitory activity (in words) (MMP): low potency

CC(C)CC(CC(=O)c1ccc(-c2ccc(Br)cc2)cc1)C(=O)O (stereo not drawn) [Example 14, [1,1'-Biphenyl]-4-butanoic acid, 4'-bromo-α-(2-methylpropyl)-γ-oxo-]
IC50 (MMP-3 [1]): 440 nM
IC50 (MMP-3 [3]): 570 nM
IC50 (MMP-9 [2]): 1200 nM

CCCCCC(CC(=O)c1ccc(-c2ccc(Cl)cc2)cc1)C(=O)O (stereo not drawn) [Example 26, [1,1'-Biphenyl]-4-butanoic acid, 4'-chloro-γ-oxo-α-pentyl-]
IC50 (MMP-3 [1]): 620 nM
IC50 (MMP-3 [3]): 240 nM
IC50 (MMP-9 [2]): 4300 nM

CC(C)CC(CC(=O)c1ccc(-c2ccc(I)cc2)cc1)C(=O)O (stereo not drawn) [Example 41, [1,1'-Biphenyl]-4-butanoic acid, 4'-iodo-α-(2-methylpropyl)-γ-oxo-]
IC50 (MMP-3 [1]): 118 nM
IC50 (MMP-3 [3]): 260 nM
IC50 (MMP-9 [2]): 500 nM

CCOC(=O)/C=C/c1ccc(-c2ccc(C(=O)CC(CCCc3ccccc3)C(=O)O)cc2)cc1 (stereo not drawn) [Example 42, [1,1'-Biphenyl]-4-butanoic acid, 4'-(3-ethoxy-3-oxo-1-propenyl)-γ-oxo-α-(3-phenylproyl)-, (E)-]
IC50 (MMP-3 [3]): 48 nM
IC50 (MMP-2 [4]; P218 substrate): 21 nM

CCOC(=O)CCc1ccc(-c2ccc(CCC(CCCc3ccccc3)C(=O)O)cc2)cc1 (stereo not drawn) [Example 44, [1,1'-Biphenyl]-4-butanoic acid, 4'-(3-ethoxy-3-oxopropyl)-α-(3-phenylpropyl)-]
IC50 (MMP-3 [3]): 1970 nM
IC50 (MMP-2 [4]; P218 substrate): 1150 nM

O=C(O)CCc1ccc(-c2ccc(CCC(CCCc3ccccc3)C(=O)O)cc2)cc1 (stereo not drawn) [Example 45, [1,1'-Biphenyl]-4-butanoic acid, 4'-(2-carboxyethyl)-α-(3-phenylpropyl)-]
inhibition at 5 µM (MMP-3 [3]; at 5 μM, read-out: MMP-3 Fluorogenic % inhibition): 43%
inhibition at 5 µM (MMP-2 [4]; at 5 μM, read-out: MMP-2 Fluorogenic % inhibition): 56%

CCCCCOc1ccc(-c2ccc(C(=O)CC(CCCc3ccccc3)C(=O)O)cc2)cc1 (stereo not shown) [Example 85, 4-[4-(4-pentyloxyphenyl)phenyl]-4-oxo-2-(3-phenylpropyl)butanoic acid]
IC50 (MMP-3 [1]): 37 nM
inhibition at 5 µM (MMP-9 [2]): 44%
IC50 (MMP-3 [5]): 80 nM
IC50 (MMP-9 [6]): 767 nM
IC50 (MMP-2 [7]): 32 nM

O=C(CC(CCCc1ccccc1)C(=O)O)c1ccc(-c2ccc(Cl)cc2)cc1 (stereo not shown) [Example 114, 4-[4-(4-chlorophenyl)phenyl]-4-oxo-2-(3-phenylpropyl)butanoic acid]
IC50 (MMP-3 [1]): 244 nM
IC50 (MMP-3 [3]): 120 nM
IC50 (MMP-9 [2]): 285 nM
IC50 (MMP-2 [4]; P218 substrate): 25 nM
IC50 (MMP-3 [5]): 246 nM
IC50 (MMP-9 [6]): 439 nM
IC50 (MMP-2 [7]): 68 nM

O=C(C[C@@H](CCCc1ccccc1)C(=O)O)c1ccc(-c2ccc(Cl)cc2)cc1 [Example 115, 4-[4-(4-chlorophenyl)phenyl]-4-oxo-2R-(3-phenylpropyl)butanoic acid]
inhibition at 5 µM (MMP-3 [1]): 39%
inhibition at 5 µM (MMP-9 [2]): 31%
IC50 (MMP-3 [5]): > 1250 nM
IC50 (MMP-9 [6]): > 1250 nM
IC50 (MMP-2 [7]): 1750 nM

O=C(CC(Cc1ccccc1)C(=O)O)c1ccc(-c2ccc(Cl)cc2)cc1 (stereo not drawn) [Example 131, [1,1'-Biphenyl]-4-butanoic acid, 4'-chloro-γ-oxo-α-(phenylmethyl)-]
IC50 (MMP-3 [1]): 310 nM
IC50 (MMP-3 [3]): 900 nM

CC(C)(C)C(=O)SCC(CC(=O)c1ccc(-c2ccc(Cl)cc2)cc1)C(=O)O (stereo not drawn) [Example 193, [1,1'-Biphenyl]-4-butanoic acid, 4'-chloro-α-[[(2,2-dimethyl-1-oxopropyl)thio]methyl]-γ-oxo-]
IC50 (MMP-3 [1]): 153 nM
IC50 (MMP-3 [3]): 150 nM
IC50 (MMP-9 [2]): 2450 nM
IC50 (MMP-2 [4]; P218 substrate): 40 nM

COC(=O)c1ccccc1SCC(CC(=O)c1ccc(-c2ccc(Cl)cc2)cc1)C(=O)O (stereo not drawn) [Example 244, [1,1'-Biphenyl]-4-butanoic acid, 4'-chloro-α-[[[2-(methoxycarbonyl)phenyl]thio]methyl]-γ-oxo-]
IC50 (MMP-3 [1]): 79 nM
IC50 (MMP-3 [3]): 27 nM
IC50 (MMP-9 [2]): 600 nM
IC50 (MMP-2 [4]; P218 substrate): 7 nM

CC(=O)SC(CC(=O)c1ccc(Oc2ccc(Cl)cc2)cc1)C(=O)O (stereo not drawn) [Example 254, Benzenebutanoic acid, α-(acetylthio)-4-(4-chlorophenoxy)-γ-oxo-, reference compound]
inhibition at 5 µM (MMP-3 [1]): 10%
inhibition at 5 µM (MMP-9 [2]): 27%
MMP inhibitory activity (in words) (MMP): very low potency

O=C(C[C@@H](CCN1C(=O)c2ccccc2C1=O)C(=O)O)c1ccc(-c2ccc(Cl)cc2)cc1 [Example 269, 4-[4-(4-chlorophenyl)phenyl]-4-oxo-2R-(2-phthalimidoethyl)butanoic acid]
IC50 (MMP-3 [5]): 1030 nM
IC50 (MMP-9 [6]): 197 nM
IC50 (MMP-2 [7]): 165 nM
MMP inhibitory activity (in words) (MMP): less active

O=C(O)[C@H]1[C@H](CN2C(=O)c3ccccc3C2=O)CC[C@@H]1C(=O)c1ccc(-c2ccc(Cl)cc2)cc1 [Example 361, (1S,2R,5S)-trans-5-[4-(4-chlorophenyl)phenylcarbonyl]-trans-2-phthalimidomethylcyclopentanecarboxylic acid]
IC50 (MMP-3 [5]): 3 nM
IC50 (MMP-9 [6]): 0.5 nM
IC50 (MMP-2 [7]): 0.81 nM
MMP inhibitory activity (in words) (MMP): most active

COc1ccc2c(CC(=O)N3CCC[C@H]3C(=O)N[C@@H](CCCCN)C(=O)N3CCC[C@H]3C(=O)N[C@@H](CC(C)C)C(=O)N[C@@H](C)C(=O)N[C@@H](CC(C)C)C(=O)N[C@@H](CNc3ccc([N+](=O)[O-])cc3[N+](=O)[O-])C(=O)N[C@@H](C)C(=O)N[C@@H](CCCNC(=N)N)C(N)=O)cc(=O)oc2c1 [Example P218] (Mca-PKPLAL[Dap](Dnp)AR-NH2)
turnover number of MMP-2 (MMP-2 [4]; P218 substrate): 400,000
